Values after ≈ are worked out from the molar mass of the structure shown. Read-outs that look alike come from different tables or passages of the source.
System: non-gonococcal Neisseria
Test: MIC determination for non-gonococcal Neisseria, agar dilution
Assay type: cell-based, Neisseria species
From the text: The 2024 WHO N. gonorrhoeae reference strains were used for quality control. Only whole MIC doubling dilutions are reported. Clinical breakpoints or the epidemiological cutoff (ECOFF, to indicate azithromycin resistance) from EUCAST (v14.0, https://www.eucast.org/clinical_breakpoints) were used to classify isolates as antimicrobial susceptible or resistant. […] Two times the standard inoculum defined by CLSI was used to establish consistent growth in untreated control samples for some strains. In vitro time-kill assays were performed according to CLSI guidelines[65] using Columbia Broth (BD Difco) supplemented with 1% IsoVitaleX Enrichment (BD). Viable bacterial counts were generated by plating 10-fold serially diluted samples on GC agar plates containing 1% IsoVitaleX Enrichment (BD).

## Cc1c(CN(C)C(=O)/C=C/c2cnc3c(c2)N[C@H](C)[C@H](O)C(=O)N3)oc2ccccc12 [Debio 1453]
Neisseria perflava 25, Replicate 3, read-out: Minimum inhibitory concentration
  MIC: 1 µg/mL (≈ 2.38 µM)
Neisseria polysaccharea 2, Consensus, read-out: Minimum inhibitory concentration
  MIC: 0.064 µg/mL (≈ 0.152 µM)
Neisseria polysaccharea 2, Replicate 1, read-out: Minimum inhibitory concentration
  MIC: 0.064 µg/mL (≈ 0.152 µM)
Neisseria polysaccharea 2, Replicate 2, read-out: Minimum inhibitory concentration
  MIC: 0.064 µg/mL (≈ 0.152 µM)
Neisseria polysaccharea 2, Replicate 3, read-out: Minimum inhibitory concentration
  MIC: 0.064 µg/mL (≈ 0.152 µM)
Neisseria sicca 1, Consensus, read-out: Minimum inhibitory concentration
  MIC: 0.5 µg/mL (≈ 1.19 µM)
Neisseria sicca 1, Replicate 1, read-out: Minimum inhibitory concentration
  MIC: 0.25 µg/mL (≈ 0.595 µM)
Neisseria sicca 1, Replicate 2, read-out: Minimum inhibitory concentration
  MIC: 0.5 µg/mL (≈ 1.19 µM)
Neisseria sicca 1, Replicate 3, read-out: Minimum inhibitory concentration
  MIC: 0.5 µg/mL (≈ 1.19 µM)
Neisseria sicca 2, Consensus, read-out: Minimum inhibitory concentration
  MIC: 0.25 µg/mL (≈ 0.595 µM)
Neisseria sicca 2, Replicate 1, read-out: Minimum inhibitory concentration
  MIC: 0.25 µg/mL (≈ 0.595 µM)
Neisseria sicca 2, Replicate 2, read-out: Minimum inhibitory concentration
  MIC: 0.25 µg/mL (≈ 0.595 µM)
Neisseria sicca 2, Replicate 3, read-out: Minimum inhibitory concentration
  MIC: 0.5 µg/mL (≈ 1.19 µM)
Neisseria sicca 3, Consensus, read-out: Minimum inhibitory concentration
  MIC: 0.008 µg/mL (≈ 0.019 µM)
Neisseria sicca 3, Replicate 1, read-out: Minimum inhibitory concentration
  MIC: 0.008 µg/mL (≈ 0.019 µM)
Neisseria sicca 3, Replicate 2, read-out: Minimum inhibitory concentration
  MIC: 0.016 µg/mL (≈ 0.0381 µM)
Neisseria sicca 3, Replicate 3, read-out: Minimum inhibitory concentration
  MIC: 0.008 µg/mL (≈ 0.019 µM)
Neisseria sicca 4, Replicate 3, read-out: Minimum inhibitory concentration
  MIC: 0.5 µg/mL (≈ 1.19 µM)
Neisseria sicca 5, Consensus, read-out: Minimum inhibitory concentration
  MIC: 0.016 µg/mL (≈ 0.0381 µM)
Neisseria sicca 5, Replicate 1, read-out: Minimum inhibitory concentration
  MIC: 0.008 µg/mL (≈ 0.019 µM)
Neisseria sicca 5, Replicate 2, read-out: Minimum inhibitory concentration
  MIC: 0.016 µg/mL (≈ 0.0381 µM)
Neisseria sicca 5, Replicate 3, read-out: Minimum inhibitory concentration
  MIC: 0.016 µg/mL (≈ 0.0381 µM)
Neisseria sicca 6, Consensus, read-out: Minimum inhibitory concentration
  MIC: 1 µg/mL (≈ 2.38 µM)
Neisseria sicca 6, Replicate 1, read-out: Minimum inhibitory concentration
  MIC: 1 µg/mL (≈ 2.38 µM)
Neisseria sicca 6, Replicate 2, read-out: Minimum inhibitory concentration
  MIC: 1 µg/mL (≈ 2.38 µM)
Neisseria sicca 6, Replicate 3, read-out: Minimum inhibitory concentration
  MIC: 1 µg/mL (≈ 2.38 µM)
Neisseria sicca 7, Consensus, read-out: Minimum inhibitory concentration
  MIC: 0.008 µg/mL (≈ 0.019 µM)
Neisseria sicca 7, Replicate 1, read-out: Minimum inhibitory concentration
  MIC: 0.008 µg/mL (≈ 0.019 µM)
Neisseria sicca 7, Replicate 2, read-out: Minimum inhibitory concentration
  MIC: 0.008 µg/mL (≈ 0.019 µM)
Neisseria sicca 7, Replicate 3, read-out: Minimum inhibitory concentration
  MIC: 0.008 µg/mL (≈ 0.019 µM)
Neisseria sicca 8, Consensus, read-out: Minimum inhibitory concentration
  MIC: 1 µg/mL (≈ 2.38 µM)
Neisseria sicca 8, Replicate 1, read-out: Minimum inhibitory concentration
  MIC: 0.5 µg/mL (≈ 1.19 µM)
Neisseria sicca 8, Replicate 2, read-out: Minimum inhibitory concentration
  MIC: 1 µg/mL (≈ 2.38 µM)
Neisseria sicca 8, Replicate 3, read-out: Minimum inhibitory concentration
  MIC: 1 µg/mL (≈ 2.38 µM)
Neisseria sicca 9, Consensus, read-out: Minimum inhibitory concentration
  MIC: 0.25 µg/mL (≈ 0.595 µM)
Neisseria sicca 9, Replicate 1, read-out: Minimum inhibitory concentration
  MIC: 0.25 µg/mL (≈ 0.595 µM)
Neisseria sicca 9, Replicate 2, read-out: Minimum inhibitory concentration
  MIC: 0.25 µg/mL (≈ 0.595 µM)
Neisseria sicca 9, Replicate 3, read-out: Minimum inhibitory concentration
  MIC: 0.25 µg/mL (≈ 0.595 µM)
Neisseria subflava 1, Consensus, read-out: Minimum inhibitory concentration
  MIC: 2 µg/mL (≈ 4.76 µM)
Neisseria subflava 1, Replicate 1, read-out: Minimum inhibitory concentration
  MIC: 2 µg/mL (≈ 4.76 µM)
Neisseria subflava 1, Replicate 2, read-out: Minimum inhibitory concentration
  MIC: 2 µg/mL (≈ 4.76 µM)
Neisseria subflava 1, Replicate 3, read-out: Minimum inhibitory concentration
  MIC: 2 µg/mL (≈ 4.76 µM)
Neisseria subflava 2, Consensus, read-out: Minimum inhibitory concentration
  MIC: 0.25 µg/mL (≈ 0.595 µM)
Neisseria subflava 2, Replicate 1, read-out: Minimum inhibitory concentration
  MIC: 0.25 µg/mL (≈ 0.595 µM)
Neisseria subflava 2, Replicate 2, read-out: Minimum inhibitory concentration
  MIC: 0.25 µg/mL (≈ 0.595 µM)
Neisseria subflava 2, Replicate 3, read-out: Minimum inhibitory concentration
  MIC: 0.25 µg/mL (≈ 0.595 µM)
Neisseria subflava 3, Consensus, read-out: Minimum inhibitory concentration
  MIC: 0.25 µg/mL (≈ 0.595 µM)
Neisseria subflava 3, Replicate 1, read-out: Minimum inhibitory concentration
  MIC: 0.25 µg/mL (≈ 0.595 µM)
Neisseria subflava 3, Replicate 2, read-out: Minimum inhibitory concentration
  MIC: 0.25 µg/mL (≈ 0.595 µM)
Neisseria subflava 4, Consensus, read-out: Minimum inhibitory concentration
  MIC: 0.064 µg/mL (≈ 0.152 µM)
Neisseria subflava 4, Replicate 1, read-out: Minimum inhibitory concentration
  MIC: 0.064 µg/mL (≈ 0.152 µM)
Neisseria subflava 4, Replicate 2, read-out: Minimum inhibitory concentration
  MIC: 0.064 µg/mL (≈ 0.152 µM)
Neisseria subflava 4, Replicate 3, read-out: Minimum inhibitory concentration
  MIC: 0.064 µg/mL (≈ 0.152 µM)
Neisseria subflava 5, Consensus, read-out: Minimum inhibitory concentration
  MIC: 0.5 µg/mL (≈ 1.19 µM)
Neisseria subflava 5, Replicate 1, read-out: Minimum inhibitory concentration
  MIC: 0.5 µg/mL (≈ 1.19 µM)
Neisseria subflava 5, Replicate 2, read-out: Minimum inhibitory concentration
  MIC: 0.5 µg/mL (≈ 1.19 µM)
Neisseria subflava 5, Replicate 3, read-out: Minimum inhibitory concentration
  MIC: 0.5 µg/mL (≈ 1.19 µM)
po, Neisseria oralis 1, Consensus, read-out: Minimum inhibitory concentration
  MIC: 0.25 µg/mL (≈ 0.595 µM)
po, Neisseria oralis 1, Replicate 1, read-out: Minimum inhibitory concentration
  MIC: 0.25 µg/mL (≈ 0.595 µM)
po, Neisseria oralis 1, Replicate 2, read-out: Minimum inhibitory concentration
  MIC: 0.25 µg/mL (≈ 0.595 µM)
po, Neisseria oralis 1, Replicate 3, read-out: Minimum inhibitory concentration
  MIC: 0.25 µg/mL (≈ 0.595 µM)
read-out: Minimum inhibitory concentration, Neisseria cinerea 4, Consensus
  MIC: 0.125 µg/mL (≈ 0.297 µM)
read-out: Minimum inhibitory concentration, Neisseria cinerea 4, Replicate 1
  MIC: 0.125 µg/mL (≈ 0.297 µM)
read-out: Minimum inhibitory concentration, Neisseria cinerea 4, Replicate 2
  MIC: 0.125 µg/mL (≈ 0.297 µM)
read-out: Minimum inhibitory concentration, Neisseria cinerea 4, Replicate 3
  MIC: 0.125 µg/mL (≈ 0.297 µM)
read-out: Minimum inhibitory concentration, Neisseria cinerea 5, Consensus
  MIC: 0.125 µg/mL (≈ 0.297 µM)
read-out: Minimum inhibitory concentration, Neisseria cinerea 5, Replicate 1
  MIC: 0.125 µg/mL (≈ 0.297 µM)
read-out: Minimum inhibitory concentration, Neisseria cinerea 5, Replicate 2
  MIC: 0.125 µg/mL (≈ 0.297 µM)
read-out: Minimum inhibitory concentration, Neisseria cinerea 5, Replicate 3
  MIC: 0.125 µg/mL (≈ 0.297 µM)
read-out: Minimum inhibitory concentration, Neisseria cinerea 8, Consensus
  MIC: 0.125 µg/mL (≈ 0.297 µM)
read-out: Minimum inhibitory concentration, Neisseria cinerea 8, Replicate 2
  MIC: 0.125 µg/mL (≈ 0.297 µM)
read-out: Minimum inhibitory concentration, Neisseria cinerea 8, Replicate 3
  MIC: 0.125 µg/mL (≈ 0.297 µM)
read-out: Minimum inhibitory concentration, Neisseria elongata 1, Consensus
  MIC: 0.125 µg/mL (≈ 0.297 µM)
read-out: Minimum inhibitory concentration, Neisseria elongata 1, Replicate 1
  MIC: 0.125 µg/mL (≈ 0.297 µM)
read-out: Minimum inhibitory concentration, Neisseria elongata 1, Replicate 2
  MIC: 0.125 µg/mL (≈ 0.297 µM)
read-out: Minimum inhibitory concentration, Neisseria elongata 1, Replicate 3
  MIC: 0.125 µg/mL (≈ 0.297 µM)
read-out: Minimum inhibitory concentration, Neisseria flava 1, Consensus
  MIC: 0.125 µg/mL (≈ 0.297 µM)
read-out: Minimum inhibitory concentration, Neisseria flava 1, Replicate 1
  MIC: 0.125 µg/mL (≈ 0.297 µM)
read-out: Minimum inhibitory concentration, Neisseria flava 1, Replicate 3
  MIC: 0.125 µg/mL (≈ 0.297 µM)
read-out: Minimum inhibitory concentration, Neisseria flavescens 2, Consensus
  MIC: 0.125 µg/mL (≈ 0.297 µM)
read-out: Minimum inhibitory concentration, Neisseria flavescens 2, Replicate 1
  MIC: 0.125 µg/mL (≈ 0.297 µM)
read-out: Minimum inhibitory concentration, Neisseria flavescens 2, Replicate 3
  MIC: 0.125 µg/mL (≈ 0.297 µM)
read-out: Minimum inhibitory concentration, Neisseria flavescens 8, Consensus
  MIC: 0.125 µg/mL (≈ 0.297 µM)
read-out: Minimum inhibitory concentration, Neisseria flavescens 8, Replicate 2
  MIC: 0.125 µg/mL (≈ 0.297 µM)
read-out: Minimum inhibitory concentration, Neisseria flavescens 8, Replicate 3
  MIC: 0.125 µg/mL (≈ 0.297 µM)
read-out: Minimum inhibitory concentration, Neisseria flavescens 10, Consensus
  MIC: 0.125 µg/mL (≈ 0.297 µM)
read-out: Minimum inhibitory concentration, Neisseria flavescens 10, Replicate 1
  MIC: 0.125 µg/mL (≈ 0.297 µM)
read-out: Minimum inhibitory concentration, Neisseria flavescens 10, Replicate 3
  MIC: 0.125 µg/mL (≈ 0.297 µM)
read-out: Minimum inhibitory concentration, Neisseria flavescens 12, Replicate 3
  MIC: 0.125 µg/mL (≈ 0.297 µM)
read-out: Minimum inhibitory concentration, Neisseria mucosa 2, Consensus
  MIC: 0.125 µg/mL (≈ 0.297 µM)
read-out: Minimum inhibitory concentration, Neisseria mucosa 2, Replicate 2
  MIC: 0.125 µg/mL (≈ 0.297 µM)
read-out: Minimum inhibitory concentration, Neisseria mucosa 2, Replicate 3
  MIC: 0.125 µg/mL (≈ 0.297 µM)
read-out: Minimum inhibitory concentration, Neisseria perflava 5, Consensus
  MIC: 0.125 µg/mL (≈ 0.297 µM)
read-out: Minimum inhibitory concentration, Neisseria perflava 5, Replicate 1
  MIC: 0.125 µg/mL (≈ 0.297 µM)
read-out: Minimum inhibitory concentration, Neisseria perflava 5, Replicate 2
  MIC: 0.125 µg/mL (≈ 0.297 µM)
read-out: Minimum inhibitory concentration, Neisseria perflava 5, Replicate 3
  MIC: 0.125 µg/mL (≈ 0.297 µM)
read-out: Minimum inhibitory concentration, Neisseria perflava 18, Consensus
  MIC: 0.125 µg/mL (≈ 0.297 µM)
read-out: Minimum inhibitory concentration, Neisseria perflava 18, Replicate 1
  MIC: 0.125 µg/mL (≈ 0.297 µM)
read-out: Minimum inhibitory concentration, Neisseria perflava 18, Replicate 3
  MIC: 0.125 µg/mL (≈ 0.297 µM)
read-out: Minimum inhibitory concentration, Neisseria perflava 24, Consensus
  MIC: 0.125 µg/mL (≈ 0.297 µM)
read-out: Minimum inhibitory concentration, Neisseria perflava 24, Replicate 1
  MIC: 0.125 µg/mL (≈ 0.297 µM)
read-out: Minimum inhibitory concentration, Neisseria perflava 24, Replicate 2
  MIC: 0.125 µg/mL (≈ 0.297 µM)
read-out: Minimum inhibitory concentration, Neisseria perflava 24, Replicate 3
  MIC: 0.125 µg/mL (≈ 0.297 µM)
read-out: Minimum inhibitory concentration, Neisseria polysaccharea 1, Consensus
  MIC: 0.125 µg/mL (≈ 0.297 µM)
read-out: Minimum inhibitory concentration, Neisseria polysaccharea 1, Replicate 1
  MIC: 0.125 µg/mL (≈ 0.297 µM)
read-out: Minimum inhibitory concentration, Neisseria polysaccharea 1, Replicate 2
  MIC: 0.125 µg/mL (≈ 0.297 µM)
read-out: Minimum inhibitory concentration, Neisseria polysaccharea 1, Replicate 3
  MIC: 0.125 µg/mL (≈ 0.297 µM)
read-out: Minimum inhibitory concentration, Neisseria sicca 4, Consensus
  MIC: 0.125 µg/mL (≈ 0.297 µM)
read-out: Minimum inhibitory concentration, Neisseria sicca 4, Replicate 1
  MIC: 0.125 µg/mL (≈ 0.297 µM)
read-out: Minimum inhibitory concentration, Neisseria sicca 4, Replicate 2
  MIC: 0.125 µg/mL (≈ 0.297 µM)
read-out: Minimum inhibitory concentration, Neisseria subflava 3, Replicate 3
  MIC: 0.125 µg/mL (≈ 0.297 µM)

From article PMC12446476 (Nature Communications, 2025)
